According to patent US6355799B1, “Substituted benzene compounds, process for their preparation, and herbicidal and defoliant compositions containing them” (ISK Americas Incorporated, priority 1997, dated 2002):

Legend:
Assay type in all cases: in vivo
[1] = tested on: green foxtail (Setaria viridis, SETVI); test: Post-emerge test, greenhouse herbicide activity screening; settings: post-emerge; for Post-emerge Herbicidal Activity SETVI: phytotoxicity rating 0-100 at 14 days after application; for phytotoxicity rating SETVI: 14 days after application, rating scale 0-100
From the text: (§1) A standard greenhouse herbicide activity screening system was used to evaluate the herbicidal efficacy and crop safety of these test compounds. Seven broadleaf weed species including redroot pigweed (Amaranthus retroflexus, AMARE, velvetleaf (Abutilon theophrasti, ABUTH), sicklepod (Cassia obtusifolia, CASOB), ivyleaf morningglory (Ipomoea hederacea, IPOHE), lambsquarters (Chenopodium album, CHEAL), common ragweed (Ambrosia artemisizfolia L., AMBEL), and cocklebur (Xanthium strumarium, XANST) were used as test species. Four grass weed species including green foxtail (Setaria viridis, SETVI), barnyardgrass (Echinochloa crus-galli, ECHCG), johnsongrass (Sorghum halepense, SORHA), and large crabgrass (Digitaria sanguinalis, DIGSA) were also used. In addition, three crop species, field corn (Zea mays L., var. Dekalb 535, CORN), soybean (Glycine max L., var. Pella 86, SOY), and is upland rice (Oryza sp., var. Tebonnet, RICE) were included.
(§2) All plants were grown in 10 cm square plastic pots which were filled with a sandy loam soil mix. For pre-emerge tests, seeds were planted one day prior to application of the test compounds. For post-emerge tests, seeds were planted 8-21 days prior to the test to allow emergence and good foliage development prior to application of the test substances. At the time of the post-emerge application, plants of all species were usually at the 2-3 leaf stage of development.
(§3) All test compounds Were dissolved in acetone and applied to the test units in a volume of 187 l /ha. Test materials were applied at rates ranging from 15 g ai/ha to 1000 g ai/ha using a track sprayer equipped with a TJ8001E even flow flat fan spray nozzle. Plants were arranged on a shelf so that the top of the canopy (post-emerge) or top of the soil surface (pre-emerge) was 40-45 cm below the nozzle. Pressurized air was used to force the test solution through the nozzle as it was mechanically advanced (via electrically driven chain drive) over the top of all test plants/pots. This application simulates a typical commercial field herbicide application.
(§4) In the post-emerge test, a commercial non-ionic surfactant was also included (0.25% v/v) to enhance wetting of the leaf surfaces of target plants. Immediately after application, test units of the pre-emerge applications were watered at the soil surface to incorporate the test materials. Subsequently, these test units were bottom-watered. Post-emerge test units were always bottom-watered.
(§5) At 14 days after application of the test materials, phytotoxicity ratings were recorded. A rating scale of 0-100 was used as previously described in Research Methods in Weed Science, 2nd edition, B. Truelove, Ed., Southern Weed Science Society, Auburn University, Auburn, Ala. 1977. Briefly, “0” corresponds to no damage and “100” corresponds to complete death of all plants in the test unit. This scale was used both to determine efficacy against weed species and damage to crop species. Herbicide activity data for various compounds of this invention, which are shown by compound No. in Tables 1-8, are shown in Tables 11 and 12.

[2] = tested on: lambsquarters (Chenopodium album, CHEAL); test: as above; settings: post-emerge; for Post-emerge Herbicidal Activity CHEAL: phytotoxicity rating 0-100 at 14 days after application; for phytotoxicity rating CHEAL: 14 days after application, rating scale 0-100
From the text: as §1, §2, §3, §4, §5

[3] = tested on: sicklepod (Cassia obtusifolia, CASOB); test: as above; settings: post-emerge; for Post-emerge Herbicidal Activity CASOB: phytotoxicity rating 0-100 at 14 days after application; for phytotoxicity rating CASOB: 14 days after application, rating scale 0-100
From the text: as §1, §2, §3, §4, §5

[4] = tested on: barnyardgrass (Echinochloa crus-galli, ECHCG); test: as above; settings: post-emerge; for Post-emerge Herbicidal Activity ECHCG: phytotoxicity rating 0-100 at 14 days after application; for phytotoxicity rating ECHCG: 14 days after application, rating scale 0-100
From the text: as §1, §2, §3, §4, §5

[5] = tested on: ivyleaf morningglory (Ipomoea hederacea, IPOHE); test: as above; settings: post-emerge; for Post-emerge Herbicidal Activity IPOHE: phytotoxicity rating 0-100 at 14 days after application; for phytotoxicity rating IPOHE: 14 days after application, rating scale 0-100
From the text: as §1, §2, §3, §4, §5

[6] = tested on: large crabgrass (Digitaria sanguinalis, DIGSA); test: as above; settings: post-emerge; for Post-emerge Herbicidal Activity DIGSA: phytotoxicity rating 0-100 at 14 days after application; for phytotoxicity rating DIGSA: 14 days after application, rating scale 0-100
From the text: as §1, §2, §3, §4, §5

[7] = tested on: redroot pigweed (Amaranthus retroflexus, AMARE); test: as above; settings: post-emerge; for Post-emerge Herbicidal Activity AMARE: phytotoxicity rating 0-100 at 14 days after application; for phytotoxicity rating AMARE: 14 days after application
From the text: as §1, §2, §3, §4, §5

[8] = tested on: velvetleaf (Abutilon theophrasti, ABUTH); test: as above; settings: post-emerge; for Post-emerge Herbicidal Activity ABUTH: phytotoxicity rating 0-100 at 14 days after application; for phytotoxicity rating ABUTH: 14 days after application, rating scale 0-100
From the text: as §1, §2, §3, §4, §5

[9] = tested on: redroot pigweed (Amaranthus retroflexus, AMARE); test: Pre-emerge test, greenhouse herbicide activity screening
From the text: as §1, §2
All test compounds Were dissolved in acetone and applied to the test units in a volume of 187 l /ha. […] Plants were arranged on a shelf so that the top of the canopy (post-emerge) or top of the soil surface (pre-emerge) was 40-45 cm below the nozzle. Pressurized air was used to force the test solution through the nozzle as it was mechanically advanced (via electrically driven chain drive) over the top of all test plants/pots. This application simulates a typical commercial field herbicide application.
as §4, §5

[10] = tested on: green foxtail (Setaria viridis, SETVI); test: as above
From the text: as §1, §2, §3, §4, §5

[11] = tested on: lambsquarters (Chenopodium album, CHEAL); test: as above
From the text: as §1, §2, §3, §4, §5

[12] = tested on: sicklepod (Cassia obtusifolia, CASOB); test: as above
From the text: as §1, §2, §3, §4, §5

[13] = tested on: barnyardgrass (Echinochloa crus-galli, ECHCG); test: as above
From the text: as §1, §2, §3, §4, §5

[14] = tested on: ivyleaf morningglory (Ipomoea hederacea, IPOHE); test: as above
From the text: as §1, §2, §3, §4, §5

[15] = tested on: large crabgrass (Digitaria sanguinalis, DIGSA); test: as above
From the text: as §1, §2, §3, §4, §5

[16] = tested on: velvetleaf (Abutilon theophrasti, ABUTH); test: as above
From the text: as §1, §2, §3, §4, §5

[17] = tested on: upland rice (Oryza sp., var. Tebonnet, RICE); test: Pre-emerge test, crop safety
From the text: as §1, §2, §3, §4, §5

[18] = tested on: field corn (Zea mays L., var. Dekalb 535, CORN); test: Pre-emerge test, crop safety
From the text: as §1, §2, §3, §4, §5

[19] = tested on: upland rice (Oryza sp., var. Tebonnet, RICE); test: Post-emerge test, crop safety; settings: post-emerge; for Post-emerge Herbicidal Activity RICE: crop damage rating 0-100 at 14 days after application; for phytotoxicity rating RICE (crop damage): 14 days after application, rating scale 0-100
From the text: as §1, §2, §3, §4, §5

[20] = tested on: field corn (Zea mays L., var. Dekalb 535, CORN); test: Post-emerge test, crop safety; settings: post-emerge; for Post-emerge Herbicidal Activity CORN: crop damage rating 0-100 at 14 days after application; for phytotoxicity rating CORN (crop damage): 14 days after application, rating scale 0-100
From the text: as §1, §2, §3, §4, §5

[21] = pre-emerge, rate 63 g ai/ha, phytotoxicity rating 0-100 at 14 days after application
[22] = pre-emerge, rate 250 g ai/ha, phytotoxicity rating 0-100 at 14 days after application
[23] = crop damage, pre-emerge, rate 63 g ai/ha, phytotoxicity rating 0-100 at 14 days after application
[24] = crop damage, pre-emerge, rate 250 g ai/ha, phytotoxicity rating 0-100 at 14 days after application
[25] = 63 g ai/ha, phytotoxicity rating 0-100, 14 days after application
[26] = 250 g ai/ha, phytotoxicity rating 0-100, 14 days after application
[27] = 63 g ai/ha, crop damage rating 0-100, 14 days after application
[28] = 250 g ai/ha, crop damage rating 0-100, 14 days after application

Cc1cccc(COC(=O)Nc2c(C)c(Cl)cc(F)c2-n2c(=O)cc(C(F)(F)F)n(C)c2=O)c1 [4-68]
75: Post-emerge Herbicidal Activity DIGSA ([6]; 63 g ai/ha)
80: Pre-emerge Herbicidal Activity CORN [18, 24] | Post-emerge Herbicidal Activity RICE ([19]; 250 g ai/ha)
90: Post-emerge Herbicidal Activity ECHCG ([4]; 63 g ai/ha) | Post-emerge Herbicidal Activity DIGSA ([6]; 250 g ai/ha) | Pre-emerge Herbicidal Activity RICE [17, 24]
98: Post-emerge Herbicidal Activity ECHCG ([4]; 250 g ai/ha) | Pre-emerge Herbicidal Activity ECHCG [13, 22]
50: Pre-emerge Herbicidal Activity RICE [17, 23]
45: Pre-emerge Herbicidal Activity CORN [18, 23]
40: Pre-emerge Herbicidal Activity CASOB [12, 21] | Pre-emerge Herbicidal Activity IPOHE [14, 21]
95: Post-emerge Herbicidal Activity CORN ([20]; 63 g ai/ha)
60: Pre-emerge Herbicidal Activity ECHCG [13, 21] | Post-emerge Herbicidal Activity RICE ([19]; 63 g ai/ha)
100: Post-emerge Herbicidal Activity SETVI ([1]; 63 g ai/ha) | Post-emerge Herbicidal Activity SETVI ([1]; 250 g ai/ha) | Post-emerge Herbicidal Activity CHEAL ([2]; 63 g ai/ha) | Post-emerge Herbicidal Activity CHEAL ([2]; 250 g ai/ha) | Post-emerge Herbicidal Activity CASOB ([3]; 63 g ai/ha) | Post-emerge Herbicidal Activity CASOB ([3]; 250 g ai/ha) | Post-emerge Herbicidal Activity IPOHE ([5]; 63 g ai/ha) | Post-emerge Herbicidal Activity IPOHE ([5]; 250 g ai/ha) | Post-emerge Herbicidal Activity AMARE ([7]; 63 g ai/ha) | Post-emerge Herbicidal Activity AMARE ([7]; 250 g ai/ha) | Post-emerge Herbicidal Activity ABUTH ([8]; 63 g ai/ha) | Post-emerge Herbicidal Activity ABUTH ([8]; 250 g ai/ha) | Pre-emerge Herbicidal Activity AMARE [9, 21] | Pre-emerge Herbicidal Activity AMARE [9, 22] | Pre-emerge Herbicidal Activity SETVI [10, 21] | Pre-emerge Herbicidal Activity SETVI [10, 22] | Pre-emerge Herbicidal Activity CHEAL [11, 21] | Pre-emerge Herbicidal Activity CHEAL [11, 22] | Pre-emerge Herbicidal Activity CASOB [12, 22] | Pre-emerge Herbicidal Activity IPOHE [14, 22] | Pre-emerge Herbicidal Activity DIGSA [15, 21] | Pre-emerge Herbicidal Activity DIGSA [15, 22] | Pre-emerge Herbicidal Activity ABUTH [16, 21] | Pre-emerge Herbicidal Activity ABUTH [16, 22] | Post-emerge Herbicidal Activity CORN ([20]; 250 g ai/ha)

COc1c(Cl)cc(F)c(-n2c(=O)cc(C(F)(F)F)n(C)c2=O)c1NC(=O)OCc1ccc(OC(F)(F)F)cc1 [4-45]
30: phytotoxicity rating SETVI ([1]; 63 g ai/ha) | Pre-emerge Herbicidal Activity AMARE [9, 25]
20: phytotoxicity rating ECHCG ([4]; 63 g ai/ha) | phytotoxicity rating ECHCG ([4]; 250 g ai/ha) | phytotoxicity rating DIGSA ([6]; 250 g ai/ha) | Pre-emerge Herbicidal Activity CORN [18, 28] | phytotoxicity rating RICE (crop damage) ([19]; 250 g ai/ha) | phytotoxicity rating CORN (crop damage) ([20]; 250 g ai/ha)
95: phytotoxicity rating IPOHE ([5]; 63 g ai/ha) | phytotoxicity rating AMARE ([7]; 250 g ai/ha, rating scale 0-100) | Pre-emerge Herbicidal Activity CHEAL [11, 26]
50: Pre-emerge Herbicidal Activity SETVI [10, 26] | Pre-emerge Herbicidal Activity CHEAL [11, 25] | Pre-emerge Herbicidal Activity ABUTH [16, 25]
0: Pre-emerge Herbicidal Activity SETVI [10, 25] | Pre-emerge Herbicidal Activity CASOB [12, 25] | Pre-emerge Herbicidal Activity ECHCG [13, 25] | Pre-emerge Herbicidal Activity DIGSA [15, 25] | Pre-emerge Herbicidal Activity RICE [17, 27] | Pre-emerge Herbicidal Activity CORN [18, 27]
70: Pre-emerge Herbicidal Activity DIGSA [15, 26]
100: phytotoxicity rating CHEAL ([2]; 63 g ai/ha) | phytotoxicity rating CHEAL ([2]; 250 g ai/ha) | phytotoxicity rating IPOHE ([5]; 250 g ai/ha) | phytotoxicity rating ABUTH ([8]; 63 g ai/ha) | phytotoxicity rating ABUTH ([8]; 250 g ai/ha) | Pre-emerge Herbicidal Activity AMARE [9, 26]
90: phytotoxicity rating AMARE ([7]; 63 g ai/ha, rating scale 0-100 (0 no damage, 100 complete death)) | Pre-emerge Herbicidal Activity ABUTH [16, 26]
60: phytotoxicity rating SETVI ([1]; 250 g ai/ha)
80: phytotoxicity rating CASOB ([3]; 63 g ai/ha) | phytotoxicity rating CASOB ([3]; 250 g ai/ha)
40: Pre-emerge Herbicidal Activity CASOB [12, 26] | Pre-emerge Herbicidal Activity ECHCG [13, 26] | Pre-emerge Herbicidal Activity IPOHE [14, 26]
10: phytotoxicity rating DIGSA ([6]; 63 g ai/ha) | Pre-emerge Herbicidal Activity IPOHE [14, 25] | Pre-emerge Herbicidal Activity RICE [17, 28] | phytotoxicity rating RICE (crop damage) ([19]; 63 g ai/ha) | phytotoxicity rating CORN (crop damage) ([20]; 63 g ai/ha)
